From patent US20260356957A1, “METHODS FOR TREATMENT OF NON-SMALL CELL LUNG CANCER (NSCLC)” (Janssen Biotech, Inc., priority 2023, published 2026)
“Also recorded” adds a separate entry of the source.

Key:
Assay type in all cases: in vivo, human
[1] = system: EGFR-mutated locally advanced or metastatic NSCLC; assay: MARIPOSA Phase 3, duration of response by BICR
[2] = system: EGFR-mutated NSCLC with brain metastasis; assay: MARIPOSA Phase 3, intracranial PFS by BICR in participants with history of brain metastasis
Excerpt: • 1. […] Intracranial PFS [Time Frame: Up to approximately 42 months]. […] Incidence and Severity of Adverse Events (AEs) [Time Frame: Up to approximately 60 months]. Incidence and severity of treatment emergent adverse events (TEAEs) will be reported. Any adverse event occurring at or after the initial administration of study treatment through the day of last dose plus 30 days, or until the start of subsequent anticancer therapy (if earlier), is considered to be treatment emergent. • 8. Number of Participants with Clinical Laboratory Abnormalities [Time Frame: Up to approximately 60 months]. Number of participants with clinical laboratory abnormalities (serum chemistry, hematology, blood coagulation, and urine samples) will be reported. • 9. Number of Participants with Vital Signs Abnormalities [Time Frame: Up to approximately 60 months]. Number of participants with vital signs abnormalities (temperature, heart rate, respiratory rate, oxygen saturation, blood pressure) will be reported. • 10. Number of Participants with Physical Examination Abnormalities [Time Frame: Up to approximately 60 months]. Number of participants with physical examination abnormalities will be reported. • 11. […] Number of Participants with Anti-Amivantamab Antibodies [Time Frame: Up to approximately 42 months]. […] Change from Baseline in Non-Small Cell Lung Cancer-Symptom Assessment Questionnaire (NCSLC-SAQ) [Time Frame: Baseline Up to approximately 42 months]. The NSCLC-SAQ contains 7 items that assess cough, pain, dyspnea, fatigue, and poor appetite over a 7-day recall period. Each multi-item scale and individual item will be summarized using count and percent by visit. • 15. Change from Baseline in European Organization of Research and Treatment of Cancer Quality of Life Questionnaire Core 30 (EORTC-QLQ-C30) [Time Frame: Baseline Up to approximately 42 months]. EORTC-QLQ-C30 is a core 30-item questionnaire for evaluating the health-related quality of life (HRQOL) of participants participating in cancer clinical studies. • 16.

[3] = system: EGFR-mutated locally advanced or metastatic NSCLC; assay: MARIPOSA Phase 3, time to symptomatic progression (TTSP)
[4] = system: EGFR-mutated locally advanced or metastatic NSCLC; assay: MARIPOSA Phase 3, overall survival; settings: for Median overall survival (95% CI): interim analysis
[5] = system: EGFR-mutated locally advanced or metastatic NSCLC; assay: MARIPOSA Phase 3, objective response by BICR (RECIST v1.1)
[6] = system: EGFR-mutated locally advanced or metastatic NSCLC; assay: MARIPOSA Phase 3, time to subsequent therapy (TTST) and subsequent therapy

Q: How did the “Response duration, Median (95% CI) among all responders” value [1] turn out when `C=CC(=O)Nc1cc(Nc2nccc(-c3cn(C)c4ccccc34)n2)c(OC)cc1N(C)CCN(C)C` [Osimertinib] was run?
A: 14.9 (12.9-17.5) mo

Q: What about the “Response duration, Median (95% CI) among confirmed responders” value [1] of the same molecule?
A: 16.8 (14.8-18.5) mo

Q: What about the “Censored (DOR)” value ([1]; confirmed responders) of the same molecule?
A: 151 (48.1%) (%)

Q: And the “DOR time to event, 25th percentile (95% CI)” value ([1]; confirmed responders)?
A: 9.26 (9.13, 10.25) months

Q: What about the “Duration of response >=6 months” value ([1]; confirmed responders) of the same molecule?
A: 267 (65.0%) (%)

Q: And the “Duration of response >=12 months” value ([1]; confirmed responders)?
A: 181 (57.6%) (%)

Q: What about the “Duration of response >=18 months” value ([1]; confirmed responders) of the same molecule?
A: 86 (27.4%) (%)

Q: What about the “Duration of response >=24 months” value ([1]; confirmed responders) of the same molecule?
A: 21 (6.7%) (%)

Q: And the “Event (DOR)” value ([1]; confirmed responders)?
A: 163 (51.9%) (%)

Q: And the “Median duration of response (95% CI)” value ([1]; confirmed responders)?
A: 16.76 (14.75, 18.53) months

Q: What about the “DOR time to event, 75th percentile (95% CI)” value ([1]; confirmed responders, NE = not estimable) of the same molecule?
A: NE (NE, NE)

Q: What about the “Median duration of response (95% CI)” value ([1]; confirmed responders, listed as osimertinib) of the same molecule?
A: 16.8 months

Q: And the “Confirmed Responders (Confirmed CR + Confirmed PR)” value ([1]; number of patients, measurable disease at baseline)?
A: 314

Q: And the “Event (intracranial PFS)” value [2]?
A: 75 (43.6%) (%)

Q: And the “Intracranial PFS 6-month event-free rate (95% CI)” value [2]?
A: 0.88 (0.82, 0.92)

Q: And the “Intracranial PFS time to event, 75th percentile (95% CI)” value ([2]; NE = not estimable)?
A: NE (NE, NE)

Q: What about the “Censored (TTSP)” value ([3]; Full Analysis Set) of the same molecule?
A: 202 (61.1%) (%)

Q: What about the “Death without Symptomatic PD” value ([3]; Full Analysis Set) of the same molecule?
A: 49 (11.4%) (%)

Q: And the “Event (TTSP)” value ([3]; Full Analysis Set)?
A: 167 (38.9%) (%)

Q: What about the “Symptomatic PD” value ([3]; Full Analysis Set) of the same molecule?
A: 118 (27.5%) (%)

Q: And the “TTSP 6-month event-free rate (95% CI)” value ([3]; Full Analysis Set)?
A: 0.90 (0.87, 0.93)

Q: What about the “TTSP 12-month event-free rate (95% CI)” value ([3]; Full Analysis Set) of the same molecule?
A: 0.79 (0.74, 0.82)

Q: What about the “TTSP 18-month event-free rate (95% CI)” value ([3]; Full Analysis Set) of the same molecule?
A: 0.67 (0.63, 0.72)

Q: What about the “TTSP 24-month event-free rate (95% CI)” value ([3]; Full Analysis Set) of the same molecule?
A: 0.59 (0.53, 0.64)

Q: And the “TTSP 30-month event-free rate (95% CI)” value ([3]; Full Analysis Set)?
A: 0.49 (0.40, 0.58)

Q: What about the “TTSP Median (95% CI)” value ([3]; NE = not estimable) of the same molecule?
A: 29.31 (29.31, NE) months

Q: What about the “TTSP time to event, 75th percentile (95% CI)” value ([3]; NE = not estimable) of the same molecule?
A: NE (NE, NE)

Q: And the “Censored (OS)” value ([4]; Full Analysis Set)?
A: 312 (72.7%) (%)

Q: What about the “Event (OS)” value ([4]; Full Analysis Set) of the same molecule?
A: 117 (27.3%) (%)

Q: And the “OS 6-month event-free rate (95% CI)” value ([4]; Full Analysis Set)?
A: 0.96 (0.93, 0.97)

Q: What about the “OS 12-month event-free rate (95% CI)” value ([4]; Full Analysis Set) of the same molecule?
A: 0.88 (0.85, 0.91)

Q: And the “OS 18-month event-free rate (95% CI)” value ([4]; Full Analysis Set)?
A: 0.79 (0.75, 0.83)

Q: And the “OS 30-month event-free rate (95% CI)” value ([4]; Full Analysis Set)?
A: 0.62 (0.52, 0.70)

Q: What about the “OS time to event, 25th percentile (95% CI)” value ([4]; Full Analysis Set) of the same molecule?
A: 20.30 (18.00, 23.59) months

Q: What about the “OS time to event, 75th percentile (95% CI)” value ([4]; NE = not estimable) of the same molecule?
A: NE (NE, NE)

Q: And the “Overall survival, Patients (95% CI) at 12 months” value ([4]; efficacy population)?
A: 88 (85-91) %

Q: And the “Overall survival, Patients (95% CI) at 18 months” value ([4]; efficacy population)?
A: 79 (75-83) %

Q: And the “Overall survival, Patients (95% CI) at 24 months” value ([4]; efficacy population)?
A: 69 (64-74) %

Q: What about the “Median overall survival (95% CI)” value ([4]; NE = not estimable) of the same molecule?
A: NE (NE, NE)

Q: And the “Median overall survival (95% CI)” value ([4]; NE = not estimable, listed as osimertinib)?
A: not reached; also recorded: could not be estimated

Q: What about the “Best overall response: Not evaluable” value [5] of the same molecule?
A: 11 (3) no. (%)

Q: And the “Best overall response: Progressive disease” value [5]?
A: 11 (3) no. (%)

Q: What about the “Best overall response: Stable disease” value [5] of the same molecule?
A: 42 (10) no. (%)

Q: And the “Best overall response: Complete response” value ([5]; all responders)?
A: 15 (4) no. (%)

Q: And the “Best overall response: Partial response” value ([5]; all responders)?
A: 335 (81) no. (%)

Q: What about the “Complete Response (CR)” value ([5]; best overall response) of the same molecule?
A: 15 (3.0%) (%)

Q: What about the “Not Evaluable (NE)” value ([5]; best overall response) of the same molecule?
A: 11 (2.7%) (%)

Q: What about the “Partial Response (PR)” value ([5]; best overall response) of the same molecule?
A: 335 (80.9%) (%)

Q: And the “Progressive Disease (PD)” value ([5]; best overall response)?
A: 11 (2.7%) (%)

Q: What about the “Objective response rate, Patients (95% CI), all responders” value ([5]; measurable disease at baseline) of the same molecule?
A: 85 (81-88) %

Q: What about the “Objective response, Patients (95% CI) including only confirmed responders” value ([5]; measurable disease at baseline) of the same molecule?
A: 76 (71-80) %

Q: And the “Objective response rate (CR + PR)” value ([5]; measurable disease at baseline, RECIST v1.1)?
A: 350 (84.5%) (%)

Q: What about the “Objective response rate, Patients (95% CI), all responders” value ([5]; measurable disease at baseline, listed as osimertinib) of the same molecule?
A: 85%

Q: And the “Censored (TTST)” value ([6]; Full Analysis Set)?
A: 232 (54.1%) (%)

Q: And the “Event (TTST)” value ([6]; Full Analysis Set)?
A: 197 (45.9%) (%)

Q: And the “TTST 6-month event-free rate (95% CI)” value ([6]; Full Analysis Set)?
A: 0.91 (0.88, 0.93)

Q: And the “TTST 12-month event-free rate (95% CI)” value ([6]; Full Analysis Set)?
A: 0.77 (0.73, 0.81)

Q: And the “TTST 18-month event-free rate (95% CI)” value ([6]; Full Analysis Set)?
A: 0.63 (0.58, 0.67)

Q: And the “TTST Median (95% CI)” value ([6]; Full Analysis Set)?
A: 24.08 (22.01, 28.98) months

Q: And the “TTST time to event, 25th percentile (95% CI)” value ([6]; Full Analysis Set)?
A: 13.11 (10.58, 14.36) months

Q: And the “TTST time to event, 75th percentile (95% CI)” value ([6]; NE = not estimable)?
A: NE (NE, NE)
